Data set [1] is described as follows: disappearance in vitro in dog whole blood. The following applies: 37° C., 50 μg test compound, read-out: T1/2 Dog Blood. In kind it is in vitro ADME. As to the method:
(§1) The rate of disappearance of a compound is expressed as the half-life (T1/2), which is the time period in which one-half of the initial amount of compound tested disappears. […] At the designated time periods, the test mixtures were removed from the incubator and transferred to a 0° C. ice bath. Acetonitrile (2 mL) was immediately added, and the mixtures were mixed to stop enzymatic hydrolysis. Zero time samples were prepared by adding 2 mL of acetonitrile to denature the proteins prior to addition of the test compounds. […] The half-life of each test compound was determined graphically by plotting the decrease in concentration as a function of time.

The nature of data set [2]: disappearance in vitro in human whole blood. In kind it is in vitro ADME. The following applies: 37° C., 50 μg test compound, read-out: T1/2 Human Blood. As to the method:
as §1

Data set [3] deals with beta-receptor mediated tachycardia (dog heart rate). As to the kind of experiment: beta-blockade in vivo in pentobarbital-anesthetized dogs, 40-minute infusion, inhibition of heart rate response to isoproterenol and recovery. As to the method: (§2) The duration of beta-blockage was determined in vivo using pentobarbital-anesthetized dogs instrumented for measurement of heart rate using a Beckman cardiotachometer triggered electronically by a phasic aortic blood pressure signal. Both vagus nerves were severed in the cervical region and the animals were mechanically ventilated. Two experimental designs were used. The first employed a 40-minute infusion of test compound and the second used a 3-hour infusion of test compound. In the 40-minute model, isoproterenol was infused into a foreleg vein at the rate of […] to induce a beta-receptor mediated tachcardia. Various doses of test compound were then infused into a femoral vein over a period of 40 minutes. This infusion was then terminated and recovery from blockade was quantitated. […] This cumulative dose is expressed as mg/kg and is an indication of potency. The time period required for 80% recovery of heart rate for each dose of test drug was also measured to quantitate duration of action. […] Test compound were dissolved in 0.9% NaCl and infused at a rate of 0.05 ml/Mg/min or less. In the 3-hour infusion model, bolus doses of isoproterenol ([…]) were used to assess the degree of beta-blockade and recovery from beta-blockage after termination of the infusion. The doses were spaced at 10-minute intervals and were given before, during and following the infusion of test compounds. The infusion rate was adjusted so that the end of the 3-hour infusion period the degree of isoproterenol inhibition averaged about 50% of control.

Data set [4] has as its system β-adrenergic receptors, guinea pig right atria. Nature of the data set: β-blocking activity in vitro, guinea pig right atria (rate response to isoproterenol). It is filed as cell-based. As to the method: (§3) Each tissue was suspended between a fixed glass rod and a Statham Universal Transducer connected to a Beckman recorder. Atria were allowed to beat spontaneously under a loading tension of approximately 0.5 g. Changes in rate of response to isoproterenol, a standard β-receptor agonist, were measured in the absence and presence of test compounds. Spiral strips of guinea pig trachea were suspended under 5 g resting tension and incubated with phentolamine, tropolone, and cocaine. Active tension was generated by addition of carbachol (3.0×10^-7 M) and decreases in tension in response to isoproterenol were quantitated. Cumulative concentration response curves were produced with isoproterenol both before and after 60-minute incubation of test compounds with atria and trachea. Compounds with β-blocking activitiy shifted concentration response curves to the right. […] The degree of cardioselectivity was estimated from the ratio KB trachea/KB atria 10(pA2 Atria -pA^2 Trachea). A ratio greater than one indicates cardioselectivity. […]

Data set [5] deals with T1, β-adrenergic receptors, guinea pig tracheal strips (Cavia porcellus, UniProt Q8K4Z4).
T1 construct: Spiral strips of guinea pig trachea; from tissue; host or cells: guinea pig trachea, spiral strips
Nature of the data set: β-blocking activity in vitro, guinea pig tracheal strips (tension response to isoproterenol). It is filed as cell-based. The following applies: for pA2 Trachea: pA2 = -log KB, vs isoproterenol, 60-minute incubation, tracheal tension; for Kb: read-out: pA2 Trachea (converted). As to the method: as §3

Data set [6] in a line: disappearance in vitro in dog liver homogenate. In kind it is in vitro ADME. The conditions noted are these: 33% (w/v) dog liver homogenate, 37° C., 50 μg test compound; read-out: T1/2 Dog Liver. As to the method: as §1
Data set [7] deals with heart rate response to isoproterenol (dog). Nature of the data set: beta-blockade in vivo in pentobarbital-anesthetized dogs, 3-hour infusion, inhibition of heart rate response to isoproterenol and recovery. The following applies: 80% recovery after 3-hour infusion. As to the method: as §2
The target of data set [8] is β-adrenergic receptors, guinea pig right atria (Cavia porcellus, UniProt H0W3H1). Nature of the data set: β-blocking activity in vitro, guinea pig right atria (rate response to isoproterenol). It is filed as cell-based. The following applies: read-out: pA2 Atria (converted). As to the method: as §3
[9] abbreviates: Canis lupus familiaris, iv, 40 min; read-out: Potency mg/kg/40 min.
Setting [10] is: time for 80% recovery of heart rate after 40-minute i.v. infusion, dogs; in min.
Setting [11] is: ratio KB trachea/KB atria, greater than one indicates cardioselectivity.

Where a name gives a salt, the structure may show the parent alone. Read-outs that look alike come from different tables or passages of the source.

T1 sequence (Q8K4Z4 whole entry): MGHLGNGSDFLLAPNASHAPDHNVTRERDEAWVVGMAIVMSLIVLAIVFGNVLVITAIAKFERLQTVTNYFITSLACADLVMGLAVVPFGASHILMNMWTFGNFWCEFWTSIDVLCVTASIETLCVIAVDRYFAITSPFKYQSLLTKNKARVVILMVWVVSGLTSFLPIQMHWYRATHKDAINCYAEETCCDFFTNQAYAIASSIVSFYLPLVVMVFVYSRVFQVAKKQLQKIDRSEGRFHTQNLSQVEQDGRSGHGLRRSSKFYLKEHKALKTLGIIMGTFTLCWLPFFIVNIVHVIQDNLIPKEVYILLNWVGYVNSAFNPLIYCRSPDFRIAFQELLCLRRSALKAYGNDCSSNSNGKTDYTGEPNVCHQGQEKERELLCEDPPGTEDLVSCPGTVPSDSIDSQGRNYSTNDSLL
Sequence of β-adrenergic receptors, guinea pig right atria (Cavia porcellus, UniProt H0W3H1) (H0W3H1 1-470): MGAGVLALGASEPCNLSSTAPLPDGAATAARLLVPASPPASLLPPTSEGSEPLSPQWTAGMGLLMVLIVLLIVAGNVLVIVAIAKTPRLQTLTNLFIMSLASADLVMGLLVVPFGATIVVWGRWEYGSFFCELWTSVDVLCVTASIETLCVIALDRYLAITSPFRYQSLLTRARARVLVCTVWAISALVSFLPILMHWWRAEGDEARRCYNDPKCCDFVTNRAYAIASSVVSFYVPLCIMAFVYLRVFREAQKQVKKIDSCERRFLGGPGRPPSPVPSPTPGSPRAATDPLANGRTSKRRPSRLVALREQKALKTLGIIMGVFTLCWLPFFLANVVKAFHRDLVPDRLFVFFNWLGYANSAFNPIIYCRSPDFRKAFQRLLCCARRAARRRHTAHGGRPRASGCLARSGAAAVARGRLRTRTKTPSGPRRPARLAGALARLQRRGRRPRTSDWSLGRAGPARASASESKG

As for `COC(=O)c1ccc(OCC(O)CNC(C)C)cc1.Cl` (stereo not shown) [Example I, Methyl 4-[2-Hydroxy 3-(isopropylamino)propoxy]benzoate Hydrochloride], the figures for the half-life in data set [1], in data set [2] and in data set [6] were 60 min, over 60 min and over 180 min, respectively. Also, the ED50 in data set [3] (setting [9]) was determined as 3.7 ± 1.3 mg/kg. For the same molecule, the “80% Recovery Time” value in data set [3] (setting [10]) worked out at 34 ± 11. For the same molecule, the Cardioselectivity in data set [4] (setting [11]) was 19. Besides, the “pA2 Trachea” value in data set [5] is given as 5.5.
Consider `COC(=O)CCc1ccc(OCC(O)CNC(C)C)cc1.Cl` (stereo not shown) [Example IV, Methyl 3-[4-[2-Hydroxy-3-(isopropylamino)propoxy]-phenyl]propionate Hydrochloride], for which the half-life in data set [1] was 41 min; in data set [2] it was 44 min; in data set [6] it was under 5 min. For the same molecule, the “80% Recovery Time” value worked out at 12 ± 3 in data set [7] (in min) and 12 ± 2 in data set [3] (setting [10]). In data set [3] (setting [9]), the ED50 was 1.35 ± 0.52 mg/kg. For the same molecule, the Cardioselectivity in data set [4] (setting [11]) is reported as 30. For the same molecule, the Kb in data set [5] is 2510 nM.
As for `COC(=O)c1ccccc1OCC(O)CNC(C)C` (stereo not shown) [Example IX, Methyl 2-[2-Hydroxy-3-(isopropylamino)propoxy]benzoate], the half-life in data set [1] stood at 38 min; in data set [2], 7 min; in data set [6], 19 min. Besides, the “80% Recovery Time” value in data set [7] (in min) and in data set [3] (setting [10]) was 15 ± 2 each time. Moreover, the ED50 in data set [3] (setting [9]) was determined as 0.176 ± 0.02 mg/kg. The Cardioselectivity in data set [4] (setting [11]) is on record as 2. Also, the Kb in data set [8] is 6.31 nM. For the same molecule, the “pA2 Trachea” value in data set [5] is recorded as 7.9.
With `COC(=O)c1ccccc1OCC(O)CNC(C)(C)C` (stereo not shown) [Example X, Methyl 2-[2-Hydroxy-3-(t-butylamino)propoxy]benzoate Hydrochloride Hemihydrate], the figures for the half-life in data set [1], in data set [2] and in data set [6] were 17 min, 7 min and 5 min, respectively. For the same molecule, the “80% Recovery Time” value is 22 ± 5 in data set [7] (in min) and 12 ± 1 in data set [3] (setting [10]). Also, the ED50 in data set [3] (setting [9]) was 0.14 ± 0.04 mg/kg.
For the molecule `COC(=O)c1ccccc1OCC(O)CNCCc1ccc(OC)c(OC)c1.O=C(O)C(=O)O` (stereo not shown) [Example XI, Methyl 2-[2-Hydroxy-3-(3,4-dimethoxyphenethylamino)propoxy]benzoate Oxalate], the half-life in data set [1] was found to be 120 min; in data set [2], 8 min; in data set [6], 3 min. Also, in data set [7] (in min), the “80% Recovery Time” value was 30 ± 4. Besides, the Cardioselectivity in data set [4] (setting [11]) is recorded as 16. Moreover, the “pA2 Trachea” value in data set [5] turned out to be 7.1.
For `C=CCOC(=O)c1ccc(OCC(O)CNC(C)C)cc1` (stereo not shown) [Example XIV, 3-Propenyl 4-[2-Hydroxy-3-(isopropylamino)propoxy]benzoate], in data set [4] (setting [11]), the Cardioselectivity is listed as 4. In addition, the figures for the Kb in data set [8] and in data set [5] were 501 nM and 2000 nM, respectively.
On to `C=CCOC(=O)c1ccccc1OCC(O)CNC(C)C` (stereo not shown) [Example XVI], for which the “80% Recovery Time” value in data set [7] (in min) is on record as 36 ± 5. In addition, the Cardioselectivity in data set [4] (setting [11]) was 1. Besides, the Kb in data set [8] and in data set [5] was 12.6 nM in each case.
Consider `C=CCOC(=O)c1cccc(OCC(O)CNC(C)C)c1` (stereo not shown) [Example XV], for which the 80% Recovery Time in data set [7] was over 60 min. This molecule yielded a Cardioselectivity in data set [4] of 2. In addition, the Kb in data set [8] is 126 nM; in data set [5] it was 63.1 nM.
Turning to `CCOC(=O)c1ccc(OCC(O)CNC(C)C)cc1.Cl` (stereo not shown) [II, Ethyl 4-[2-Hydroxy-3-(isopropylamino)propoxy]benzoate Hydrochloride], the values for the half-life in data set [1] and in data set [2] were 60 min and over 60 min, respectively. Moreover, the ED50 in data set [3] (setting [9]) was 5.7 ± 1.6 mg/kg. The “80% Recovery Time” value in data set [3] (setting [10]) was determined as 56 ± 6. Besides, the Cardioselectivity in data set [4] (setting [11]) turned out to be 2.5. Moreover, the “pA2 Trachea” value in data set [5] is 6.1.
In the case of `COC(=O)Cc1ccc(OCC(O)CNC(C)C)cc1.Cl` (stereo not shown) [III, Methyl 4-[2-Hydroxy-3-(isopropylamino)propoxy]phenylacetate hydrochloride], the values for the half-life in data set [1], in data set [2] and in data set [6] were 60 min, 2 min and 5 min, respectively. Also, the ED50 in data set [3] (setting [9]) worked out at 2.3 ± 0.6 mg/kg. Also, the “80% Recovery Time” value in data set [3] (setting [10]) is 20 ± 5. In data set [5], the “pA2 Trachea” value is given as 5.4.
On to `CC(=O)Nc1ccc(OCC(O)CNC(C)C)cc1` (stereo not shown) [Practolol, reference compound], for which the 80% Recovery Time is over 60 min in data set [7] and 61 min in data set [3] (time for 80% recovery of heart rate after 40-minute i.v. infusion, dogs).
Consider `CC(C)NCC(O)COc1cccc2ccccc12` (stereo not shown) [Propranolol, reference compound], for which the ED50 in data set [3] (Canis lupus familiaris, iv, 40 min, read-out: Potency mg/kg/40 min) worked out at 0.06 ± 0.01 mg/kg. Besides, in data set [3] (iv, 40 min), the “80% Recovery Time” value came to 42 ± 9.
As for `COC(=O)c1ccc(OCC(O)CNC(C)(C)C)cc1` (stereo not shown) [VIII, Methyl 4-[2-Hydroxy-3-(t-butylamino)propoxy]benzoate], in data set [4], the Cardioselectivity was determined as 32. For the same molecule, the “pA2 Trachea” value in data set [5] came to 5.4.
With `COC(=O)CCc1ccc(OCC(O)CNCCc2ccc(OC)c(OC)c2)cc1` (stereo not shown) [VI], the half-life in data set [1] came out at 13 min; in data set [2], 44 min; in data set [6], 2 min. Moreover, the “80% Recovery Time” value in data set [7] (in min) stood at 14 ± 3. Besides, in data set [4], the Cardioselectivity was 20. Further, the “pA2 Trachea” value in data set [5] amounted to 5.2.
Consider `COC(=O)CCc1ccc(OCC(O)CNC(C)(C)C)cc1` (stereo not shown) [V], for which the “80% Recovery Time” value turned out to be 15 ± 3 in data set [7] (in min) and 7 ± 2 in data set [3] (setting [10]). In data set [3] (setting [9]), the ED50 worked out at 4.5 ± 1.5 mg/kg. In data set [4] (setting [11]), the Cardioselectivity stood at 4. Besides, the “pA2 Trachea” value in data set [5] was found to be 5.9.
Turning to `CCCOC(=O)CCc1ccc(OCC(O)CNC(C)C)cc1.Cl` (stereo not shown) [XII, n-Propyl 3-[4-[2-Hydroxy-3-(isopropylamino)propoxy]phenyl]propionate Hydrochloride], the Cardioselectivity in data set [4] (setting [11]) was 1.6. Besides, the “pA2 Trachea” value in data set [5] is 5.2.
Consider `COC(=O)CCc1ccccc1OCC(O)CNC(C)C` (stereo not shown) [XIII], for which the half-life was 120 min in data set [1], 11 min in data set [2] and under 2.5 min in data set [6]. Besides, the “80% Recovery Time” value in data set [7] (in min) came out at 29 ± 6.
